Experimental findings from patent publication US9682960B2 (priority 2013, dated 2017) are described below.

pIC50: −log10 of the molar value. Values joined by “and” are separate entries in the source; they are usually repeats but may differ in a detail not shown here. Equal values may be shown once.

The pIC50 is −log10 of the IC50, conventionally taken in molar units.

The target in one series is Human Androgen Receptor (Homo sapiens (Human), UniProt P10275). Description: Androgen receptor assay: [3H]R1881 displacement, cytosol of HEK-293 cells transfected with hAR (hydroxylapatite assay). In kind it is binding. The following applies: for Human Androgen Receptor Binding RBA (%) R1881 = 100: relative binding affinity.
For series [1], the system named is Shionogi mouse mammary carcinoma cells. The series can be described thus: In vitro androgenic/antiandrogenic activity: proliferation of Shionogi cells with or without DHT. In kind it is cell-based. The following applies: for pIC50: Mus musculus, read-out: Shionogi Antiandrogenic Activity IC50, DHT (0.3 nM)-stimulated cell number.
The test system of series [2] is castrated (CX) immature male rats. The series can be described thus: Systemic androgenic (agonistic) activity in orchidectomized (CX) immature male rats. It is filed as in vivo, rat. Particulars: for CX Agonistic activity % Stimulation Bulbo / CX Agonistic activity % Stimulation SV / CX Agonistic activity % Stimulation Prostate: 0.1 mg/rat/po, 7 days; for CX Agonistic activity % Stimulation Bulbo: bulbocavernosus muscles weight; for CX Agonistic activity % Stimulation SV: seminal vesicles weight; for CX Agonistic activity % Stimulation Prostate: ventral prostate weight.

Series [3] concerns intact immature male rats. Description: Activity in intact immature male rats. It is filed as in vivo, rat. The protocol:
Immature male rats (Crl:CD(SD)Br) 22 to 24-day old weighting 60-80 g at start of treatment were obtained from Charles-River, Inc. (St-Constant, Quebec, Canada) and housed up to 5 per cage in plastic bins in a temperature (23±1° C.)- and light (12 h light/day, lights on at 7 h15)-controlled environment. The rats were fed rodent chow and tap water ad libitum. […] The day following their arrival, the designed animals were orchidectomized (CX) under Isoflurane anesthesia (Study Day 1) via the scrotal route and were then randomly assigned to groups of 3 to 5 animals. At the time of orchidectomy, one silastic implant of dihydrotestosterone (DHT; 1 cm length of pure DHT in silastic tubing having inner and outer diameter of 0.078 and 0.125 inches, respectively), was inserted subcutaneously in the dorsal area of animals assigned to the evaluation of antiandrogenic activity. In the case of intact animal experiments, the orchidectomy and the silastic implant installation are omitted.
Tested compounds were administered orally once daily for 7 days from Study Day 2 to Study Day 8 at doses generally ranging from 0.1 and 0.5 mg/animal. Compounds were either solubilized in dimethylsulfoxide (DMSO, 10% final concentration) and were administered as a solution/suspension in 0.9% NaCl-1% gelatin or were administered as suspensions in 0.4% aqueous methylcellulose. Animals of the control groups received the corresponding vehicle alone during the 7-day period. Some animals were treated with the antiandrogen Flutamide or Casodex as reference. The animals under isoflurane anesthesia were killed by cervical dislocation on day 9 of the study, approximately 24 h after the last dosing. The ventral prostate, seminal vesicles and bulbocavernosus muscles were rapidly dissected and weighed.
For calculations with intact animals, control DHT is replaced by control intact and the % stimulation is subtracted by 100%. W is the weight of the prostate, seminal vesicles or bulbocavernosus muscles. Discussion

The next series relates to Androgen Receptor. Description: Overall classification (antiandrogen / SARM) in the models studied.
The nature of series [4]: Oral absorption, Experiment 1: plasma levels after single oral 20 mg EM-9150/kg in intact male rats (LC-MS/MS). It is filed as in vivo, rat. Particulars: metabolite after oral EM-9150. The protocol: Intact 6 week-old male rats (Crl:CD(SD)) weighing 150-205 g were obtained from Charles-River Canada Inc. (St-Constant, Quebec, Canada) and housed up to 3 per cage in plastic bins in a temperature (19° C. to 25° C.)- and light (12 h light/day)-controlled environment. They were acclimatized to laboratory conditions for 2 weeks prior to the pharmacokinetic (PK) study. The rats were fed rodent chow (PMI Nutrition International Certified Rodent Chow No. 5CR4 (14% protein)) and tap water ad libitum. Animals were weighing 165-200 g at the time of dosing.
Blood samples (˜0.4 mL/timepoint/rat) were collected by jugular venipuncture at 0.5, 1, 2, 3.5, 7 and 24 h post-dosing from 3 animals/timepoint. Blood samples were put into tubes containing EDTA(K3) as anticoagulant and centrifuged at 4° C. for 10 min at 2700 rpm. The resulting plasma was separated and transferred to 2 polypropylene tubes, frozen immediately over dry ice and kept in a freezer set to maintain −80° C. until analysis.

Series [5] has as its system castrated (CX) immature male rats. The series can be described thus: Systemic androgenic (agonistic) activity in orchidectomized (CX) immature male rats. It is filed as in vivo. The following applies: 0.1 mg/rat, s.c. (subcutaneous).
[6] abbreviates: immature castrated rat, oral 7 days.

Chain of Human Androgen Receptor (P10275 whole entry): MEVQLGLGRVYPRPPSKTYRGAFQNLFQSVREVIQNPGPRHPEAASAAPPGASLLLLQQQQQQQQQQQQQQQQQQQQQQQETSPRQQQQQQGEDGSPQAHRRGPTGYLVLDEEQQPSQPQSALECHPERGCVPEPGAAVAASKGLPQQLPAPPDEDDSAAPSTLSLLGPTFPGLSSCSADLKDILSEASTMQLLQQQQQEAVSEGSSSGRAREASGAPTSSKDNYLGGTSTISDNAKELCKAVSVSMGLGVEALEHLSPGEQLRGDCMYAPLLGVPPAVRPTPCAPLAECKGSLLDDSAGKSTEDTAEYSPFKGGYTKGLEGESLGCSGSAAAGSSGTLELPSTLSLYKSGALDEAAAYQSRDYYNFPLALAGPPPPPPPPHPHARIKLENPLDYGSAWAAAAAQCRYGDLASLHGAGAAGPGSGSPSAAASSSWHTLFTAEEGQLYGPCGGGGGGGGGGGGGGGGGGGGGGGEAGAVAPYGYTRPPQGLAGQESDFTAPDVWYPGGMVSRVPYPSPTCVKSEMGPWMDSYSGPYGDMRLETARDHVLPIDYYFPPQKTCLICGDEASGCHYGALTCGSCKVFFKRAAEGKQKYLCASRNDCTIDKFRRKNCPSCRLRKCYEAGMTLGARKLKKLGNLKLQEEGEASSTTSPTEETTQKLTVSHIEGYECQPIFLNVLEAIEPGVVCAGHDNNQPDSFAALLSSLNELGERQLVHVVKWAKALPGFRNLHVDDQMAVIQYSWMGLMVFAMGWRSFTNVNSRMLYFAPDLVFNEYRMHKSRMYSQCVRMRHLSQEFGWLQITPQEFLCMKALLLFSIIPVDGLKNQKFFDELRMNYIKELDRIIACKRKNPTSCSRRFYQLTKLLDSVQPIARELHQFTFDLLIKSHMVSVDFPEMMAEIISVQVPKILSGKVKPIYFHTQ

Consider `Cc1c(N2C(=O)N(CCCOc3ccc(-c4ccncc4)cc3Cl)C(C)(C)C2=O)ccc(C#N)c1Cl` [EM-9251], for which the “Human Androgen Receptor Binding RBA (%) R1881 = 100” value at Human Androgen Receptor is 253%. Further, the “times more potent than OH-flutamide on the human AR (RBA ratio)” value at Human Androgen Receptor (versus hydroxyflutamide) came to 1200 times. For the same compound, the pIC50 in series [1] is 7.17. Further, in series [1] (basal (no DHT), 10^−7M), the “% of stimulation at 10^−7M on basal Shionogi cells” value came to 38%. Also, in series [2], the “CX Agonistic activity % Stimulation Bulbo” value is 119±24% and 119 ± 24 (n = 2) %; the “CX Agonistic activity % Stimulation SV” value was 27 ± 1 (n = 2) %; the “CX Agonistic activity % Stimulation Prostate” value is on record as 41 ± 2 (n = 2) %. In series [2] (setting [6]), the “activity on the bulbocavernosus muscles (in words)” value is listed as “agonistic activity”; the “activity on the prostate and seminal vesicles (in words)” value is “mixed agonistic-antagonistic activity”. Also, in series [3] (immature intact rat), the “activity on the bulbocavernosus muscles (in words)” value is listed as “agonistic activity”; the “activity on the prostate and seminal vesicles (in words)” value is on record as “antagonistic activity”. For the same compound, in series [3] (intact immature rat, 7 days), the “inhibition of intact rat prostate” value was 25±4%, the “inhibition of intact rat seminal vesicles” value was found to be 35±7% and the “stimulation of the bulbocavernosus muscles in intact rat” value was 77±6%. For the same compound, the “classification as antiandrogen or SARM (in words)” value in the series on Androgen Receptor is “selective androgen receptor modulators”.
Consider `CC1(C)NC(=O)N(c2ccc(C#N)c(Cl)c2)C1=O` [EM-9260], for which, at Human Androgen Receptor, the “Human Androgen Receptor Binding RBA (%) R1881 = 100” value is roughly 0.1%. Also, the pIC50 in series [1] is roughly 7.00. For the same compound, the “share of the plasma exposure of EM-9150” value in series [4] is “approximately 90%”. In series [2], the “CX Agonistic activity % Stimulation Bulbo” value is listed as 4%, the “CX Agonistic activity % Stimulation SV” value is listed as 2% and the “CX Agonistic activity % Stimulation Prostate” value turned out to be 0%. For the same compound, in the series on Androgen Receptor, the “classification as antiandrogen or SARM (in words)” value is recorded as “antiandrogens”.
For `C[C@]12CC[C@H]3[C@@H](CCC4=CC(=O)CC[C@@]43C)[C@@H]1CC[C@@H]2O` [Testosterone], in series [5], the “CX Agonistic activity % Stimulation Bulbo” value stood at 171% and the “CX Agonistic activity % Stimulation Prostate” value is recorded as 99%.
